In PMC10905675, “INX-315, a Selective CDK2 Inhibitor, Induces Cell Cycle Arrest and Senescence in Solid Tumors” (Cancer Discovery, 2023):

Experiments:
Assay in all cases: SelectScreen ZLYTE
Format in all cases: biochemical
Details in all cases: INX-0315 at 100nM
CHEK1 (CHK1) = target: T1, CHEK1 (CHK1) (Homo sapiens, UniProt O14757)
T1 construct: purchased Thermo Fisher Scientific SelectScreen (plus Nanosyn / Reaction Biology for CDK/cyclin lines)
Method in brief: (§1)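 Both platform types ran at predefined settings. Inhibitor was applied first at 100 nmol/L (1% DMSO), later in ten-point titrations spanning 1 µmol/L to 0.0495 nmol/L.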

PRKCI (PKC iota) = target: T2, PRKCI (PKC iota) (Homo sapiens, UniProt P41743)
T2 construct: purchased Thermo Fisher Scientific SelectScreen (plus Nanosyn / Reaction Biology for CDK/cyclin lines)
Method in brief: as §1

EPHA5 = target: T3, EPHA5 (Homo sapiens, UniProt P54756)
T3 construct: purchased Thermo Fisher Scientific SelectScreen (plus Nanosyn / Reaction Biology for CDK/cyclin lines)
Method in brief: as §1

ACVR1B (ALK4) = target: T4, ACVR1B (ALK4) (Homo sapiens, UniProt P36896)
T4 construct: purchased Thermo Fisher Scientific SelectScreen (plus Nanosyn / Reaction Biology for CDK/cyclin lines)
Method in brief: as §1

GRK6 = target: T5, GRK6 (Homo sapiens, UniProt P43250)
T5 construct: purchased Thermo Fisher Scientific SelectScreen (plus Nanosyn / Reaction Biology for CDK/cyclin lines)
Method in brief: as §1

CSF1R (FMS) = target: T6, CSF1R (FMS) (Homo sapiens, UniProt P07333)
T6 construct: purchased Thermo Fisher Scientific SelectScreen (plus Nanosyn / Reaction Biology for CDK/cyclin lines)
Method in brief: as §1

RPS6KB1 (p70S6K) = target: T7, RPS6KB1 (p70S6K) (Homo sapiens, UniProt P23443)
T7 construct: purchased Thermo Fisher Scientific SelectScreen (plus Nanosyn / Reaction Biology for CDK/cyclin lines)
Method in brief: as §1

GSK3A (GSK3 alpha) = target: T8, GSK3A (GSK3 alpha) (Homo sapiens, UniProt P49840)
T8 construct: purchased Thermo Fisher Scientific SelectScreen (plus Nanosyn / Reaction Biology for CDK/cyclin lines)
Method in brief: as §1

CAMK4 (CaMKIV) = target: T9, CAMK4 (CaMKIV) (Homo sapiens, UniProt Q16566)
T9 construct: purchased Thermo Fisher Scientific SelectScreen (plus Nanosyn / Reaction Biology for CDK/cyclin lines)
Method in brief: as §1

MAPK3 (ERK1) = target: T10, MAPK3 (ERK1) (Homo sapiens, UniProt P27361)
T10 construct: purchased Thermo Fisher Scientific SelectScreen (plus Nanosyn / Reaction Biology for CDK/cyclin lines)
Method in brief: as §1

PEAK1 = target: T11, PEAK1 (Homo sapiens, UniProt Q9H792)
T11 construct: purchased Thermo Fisher Scientific SelectScreen (plus Nanosyn / Reaction Biology for CDK/cyclin lines)
Method in brief: as §1

CDKL5 = target: T12, CDKL5 (Homo sapiens, UniProt O76039)
T12 construct: purchased Thermo Fisher Scientific SelectScreen (plus Nanosyn / Reaction Biology for CDK/cyclin lines)
Method in brief: as §1

MARK2 = target: T13, MARK2 (Homo sapiens, UniProt Q7KZI7)
T13 construct: purchased Thermo Fisher Scientific SelectScreen (plus Nanosyn / Reaction Biology for CDK/cyclin lines)
Method in brief: as §1

KIT = target: T14, KIT (Homo sapiens, UniProt P10721)
T14 construct: purchased Thermo Fisher Scientific SelectScreen (plus Nanosyn / Reaction Biology for CDK/cyclin lines)
Method in brief: as §1

MET M1250T = target: T15, MET M1250T (Homo sapiens, UniProt P08581, M1250T)
T15 construct: purchased Thermo Fisher Scientific SelectScreen (plus Nanosyn / Reaction Biology for CDK/cyclin lines)
Method in brief: as §1

RET = target: T16, RET (Homo sapiens, UniProt P07949)
T16 construct: purchased Thermo Fisher Scientific SelectScreen (plus Nanosyn / Reaction Biology for CDK/cyclin lines)
Method in brief: as §1

AMPK A1/B1/G1 = target: T17, AMPK A1/B1/G1 (Homo sapiens, UniProt Q13131)
T17 construct: purchased Thermo Fisher Scientific SelectScreen (plus Nanosyn / Reaction Biology for CDK/cyclin lines)
Method in brief: as §1

FLT1 (VEGFR1) = target: T18, FLT1 (VEGFR1) (Homo sapiens, UniProt P17948)
T18 construct: purchased Thermo Fisher Scientific SelectScreen (plus Nanosyn / Reaction Biology for CDK/cyclin lines)
Method in brief: as §1

SNF1LK2 = target: T19, SNF1LK2 (Homo sapiens, UniProt Q9H0K1)
T19 construct: purchased Thermo Fisher Scientific SelectScreen (plus Nanosyn / Reaction Biology for CDK/cyclin lines)
Method in brief: as §1

MAP3K9 (MLK1) = target: T20, MAP3K9 (MLK1) (Homo sapiens, UniProt P80192)
T20 construct: purchased Thermo Fisher Scientific SelectScreen (plus Nanosyn / Reaction Biology for CDK/cyclin lines)
Method in brief: as §1

EGFR (ErbB1) G719S = target: T21, EGFR (ErbB1) G719S (Homo sapiens, UniProt P00533, G719S)
T21 construct: purchased Thermo Fisher Scientific SelectScreen (plus Nanosyn / Reaction Biology for CDK/cyclin lines)
Method in brief: as §1

JAK2 JH1 JH2 V617F = target: T22, JAK2 JH1 JH2 V617F (Homo sapiens, UniProt O60674, V617F)
T22 construct: JAK2 JH1 JH2 V617F; purchased Thermo Fisher Scientific SelectScreen (plus Nanosyn / Reaction Biology for CDK/cyclin lines)
Method in brief: as §1

PDGFRA D842V = target: T23, PDGFRA D842V (Homo sapiens, UniProt P16234, D842V)
T23 construct: purchased Thermo Fisher Scientific SelectScreen (plus Nanosyn / Reaction Biology for CDK/cyclin lines)
Method in brief: as §1

HIPK1 (Myak) = target: T24, HIPK1 (Myak) (Homo sapiens, UniProt Q86Z02)
T24 construct: purchased Thermo Fisher Scientific SelectScreen (plus Nanosyn / Reaction Biology for CDK/cyclin lines)
Method in brief: as §1

PRKX = target: T25, PRKX (Homo sapiens, UniProt P51817)
T25 construct: purchased Thermo Fisher Scientific SelectScreen (plus Nanosyn / Reaction Biology for CDK/cyclin lines)
Method in brief: as §1

MAP3K19 (YSK4) = target: T26, MAP3K19 (YSK4) (Homo sapiens, UniProt Q56UN5)
T26 construct: purchased Thermo Fisher Scientific SelectScreen (plus Nanosyn / Reaction Biology for CDK/cyclin lines)
Method in brief: as §1

RPS6KA5 (MSK1) = target: T27, RPS6KA5 (MSK1) (Homo sapiens, UniProt O75582)
T27 construct: purchased Thermo Fisher Scientific SelectScreen (plus Nanosyn / Reaction Biology for CDK/cyclin lines)
Method in brief: as §1

EEF2K = target: T28, EEF2K (Homo sapiens, UniProt O00418)
T28 construct: purchased Thermo Fisher Scientific SelectScreen (plus Nanosyn / Reaction Biology for CDK/cyclin lines)
Method in brief: as §1

IKBKE (IKK epsilon) = target: T29, IKBKE (IKK epsilon) (Homo sapiens, UniProt Q14164)
T29 construct: purchased Thermo Fisher Scientific SelectScreen (plus Nanosyn / Reaction Biology for CDK/cyclin lines)
Method in brief: as §1

CSK = target: T30, CSK (Homo sapiens, UniProt P41240)
T30 construct: purchased Thermo Fisher Scientific SelectScreen (plus Nanosyn / Reaction Biology for CDK/cyclin lines)
Method in brief: as §1

EGFR (ErbB1) T790M L858R = target: T31, EGFR (ErbB1) T790M L858R (Homo sapiens, UniProt P00533, L858R/T790M)
T31 construct: purchased Thermo Fisher Scientific SelectScreen (plus Nanosyn / Reaction Biology for CDK/cyclin lines)
Method in brief: as §1

SGK (SGK1) = target: T32, SGK (SGK1) (Homo sapiens, UniProt O00141)
T32 construct: purchased Thermo Fisher Scientific SelectScreen (plus Nanosyn / Reaction Biology for CDK/cyclin lines)
Method in brief: as §1

ALK = target: T33, ALK (Homo sapiens, UniProt Q9UM73)
T33 construct: purchased Thermo Fisher Scientific SelectScreen (plus Nanosyn / Reaction Biology for CDK/cyclin lines)
Method in brief: as §1

KSR2 = target: T34, KSR2 (Homo sapiens, UniProt Q6VAB6)
T34 construct: purchased Thermo Fisher Scientific SelectScreen (plus Nanosyn / Reaction Biology for CDK/cyclin lines)
Method in brief: as §1

BMX = target: T35, BMX (Homo sapiens, UniProt P51813)
T35 construct: purchased Thermo Fisher Scientific SelectScreen (plus Nanosyn / Reaction Biology for CDK/cyclin lines)
Method in brief: as §1

EPHB1 = target: T36, EPHB1 (Homo sapiens, UniProt P54762)
T36 construct: purchased Thermo Fisher Scientific SelectScreen (plus Nanosyn / Reaction Biology for CDK/cyclin lines)
Method in brief: as §1

T35 sequence (P51813 whole entry): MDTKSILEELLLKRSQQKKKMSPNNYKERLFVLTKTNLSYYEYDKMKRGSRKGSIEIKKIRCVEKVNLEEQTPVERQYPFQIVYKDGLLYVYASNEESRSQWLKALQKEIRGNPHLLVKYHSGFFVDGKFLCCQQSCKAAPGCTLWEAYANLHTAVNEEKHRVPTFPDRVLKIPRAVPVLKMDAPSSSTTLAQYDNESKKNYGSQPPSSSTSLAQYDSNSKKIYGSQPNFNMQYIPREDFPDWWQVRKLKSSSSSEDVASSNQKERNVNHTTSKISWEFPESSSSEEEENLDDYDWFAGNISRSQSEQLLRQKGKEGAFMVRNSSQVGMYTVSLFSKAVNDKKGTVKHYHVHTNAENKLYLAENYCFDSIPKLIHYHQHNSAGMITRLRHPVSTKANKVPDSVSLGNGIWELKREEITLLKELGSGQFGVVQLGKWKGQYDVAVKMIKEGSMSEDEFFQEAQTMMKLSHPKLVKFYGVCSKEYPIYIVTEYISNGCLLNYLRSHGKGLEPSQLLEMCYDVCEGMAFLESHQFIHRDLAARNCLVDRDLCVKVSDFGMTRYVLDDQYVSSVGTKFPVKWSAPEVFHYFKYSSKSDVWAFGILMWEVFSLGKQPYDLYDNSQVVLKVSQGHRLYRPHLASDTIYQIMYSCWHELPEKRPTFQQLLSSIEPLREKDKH
T22 sequence (O60674 532-1132 V617F limits assumed): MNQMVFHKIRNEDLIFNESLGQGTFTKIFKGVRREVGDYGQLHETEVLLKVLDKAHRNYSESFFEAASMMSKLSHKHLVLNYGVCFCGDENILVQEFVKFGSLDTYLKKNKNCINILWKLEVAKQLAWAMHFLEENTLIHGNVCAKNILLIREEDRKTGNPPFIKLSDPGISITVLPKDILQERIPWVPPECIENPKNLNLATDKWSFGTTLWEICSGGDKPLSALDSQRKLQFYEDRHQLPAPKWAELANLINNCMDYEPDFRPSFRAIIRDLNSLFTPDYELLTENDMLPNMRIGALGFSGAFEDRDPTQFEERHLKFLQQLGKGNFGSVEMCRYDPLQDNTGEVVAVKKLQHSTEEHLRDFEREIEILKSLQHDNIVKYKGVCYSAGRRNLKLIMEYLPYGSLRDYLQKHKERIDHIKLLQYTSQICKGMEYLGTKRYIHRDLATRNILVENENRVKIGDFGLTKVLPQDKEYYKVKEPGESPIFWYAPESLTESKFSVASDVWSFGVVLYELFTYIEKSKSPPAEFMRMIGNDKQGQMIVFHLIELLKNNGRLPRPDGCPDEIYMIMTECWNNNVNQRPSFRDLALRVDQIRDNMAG
T36 sequence (P54762 18-984): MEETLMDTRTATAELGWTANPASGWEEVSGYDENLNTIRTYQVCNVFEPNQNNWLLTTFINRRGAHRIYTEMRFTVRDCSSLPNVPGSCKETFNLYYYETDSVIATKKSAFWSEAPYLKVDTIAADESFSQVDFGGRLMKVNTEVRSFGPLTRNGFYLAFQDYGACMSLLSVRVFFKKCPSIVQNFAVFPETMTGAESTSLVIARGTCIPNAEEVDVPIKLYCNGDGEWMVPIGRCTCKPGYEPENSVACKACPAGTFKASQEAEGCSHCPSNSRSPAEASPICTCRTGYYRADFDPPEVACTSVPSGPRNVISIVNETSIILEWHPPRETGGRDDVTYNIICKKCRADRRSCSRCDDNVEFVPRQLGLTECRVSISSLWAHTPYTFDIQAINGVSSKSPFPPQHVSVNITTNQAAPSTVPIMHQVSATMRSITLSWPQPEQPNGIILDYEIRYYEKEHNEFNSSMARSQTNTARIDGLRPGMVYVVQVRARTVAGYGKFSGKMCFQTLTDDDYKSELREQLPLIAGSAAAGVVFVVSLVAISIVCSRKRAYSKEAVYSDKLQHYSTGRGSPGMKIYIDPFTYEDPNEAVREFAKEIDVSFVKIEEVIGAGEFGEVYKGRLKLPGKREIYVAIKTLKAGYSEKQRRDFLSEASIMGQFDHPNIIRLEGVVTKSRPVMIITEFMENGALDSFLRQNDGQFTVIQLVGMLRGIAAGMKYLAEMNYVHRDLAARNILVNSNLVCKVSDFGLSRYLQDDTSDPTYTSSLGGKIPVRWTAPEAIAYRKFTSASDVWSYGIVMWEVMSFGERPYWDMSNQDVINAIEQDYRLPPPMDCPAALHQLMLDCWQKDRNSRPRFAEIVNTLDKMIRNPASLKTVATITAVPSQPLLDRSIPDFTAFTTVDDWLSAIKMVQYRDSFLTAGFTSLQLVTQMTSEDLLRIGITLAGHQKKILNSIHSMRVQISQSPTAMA
T32 sequence (O00141 whole entry): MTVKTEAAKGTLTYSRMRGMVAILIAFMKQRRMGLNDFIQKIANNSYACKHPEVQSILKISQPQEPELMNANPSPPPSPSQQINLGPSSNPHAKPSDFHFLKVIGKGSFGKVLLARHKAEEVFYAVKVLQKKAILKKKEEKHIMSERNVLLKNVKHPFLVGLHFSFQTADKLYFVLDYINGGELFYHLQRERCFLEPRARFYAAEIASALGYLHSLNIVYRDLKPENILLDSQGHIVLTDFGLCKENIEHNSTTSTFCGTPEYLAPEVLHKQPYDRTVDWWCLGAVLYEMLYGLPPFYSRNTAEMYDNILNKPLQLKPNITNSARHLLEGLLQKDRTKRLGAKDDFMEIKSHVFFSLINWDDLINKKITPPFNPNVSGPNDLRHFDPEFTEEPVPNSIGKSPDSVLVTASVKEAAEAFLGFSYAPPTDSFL
T28 sequence (O00418 whole entry): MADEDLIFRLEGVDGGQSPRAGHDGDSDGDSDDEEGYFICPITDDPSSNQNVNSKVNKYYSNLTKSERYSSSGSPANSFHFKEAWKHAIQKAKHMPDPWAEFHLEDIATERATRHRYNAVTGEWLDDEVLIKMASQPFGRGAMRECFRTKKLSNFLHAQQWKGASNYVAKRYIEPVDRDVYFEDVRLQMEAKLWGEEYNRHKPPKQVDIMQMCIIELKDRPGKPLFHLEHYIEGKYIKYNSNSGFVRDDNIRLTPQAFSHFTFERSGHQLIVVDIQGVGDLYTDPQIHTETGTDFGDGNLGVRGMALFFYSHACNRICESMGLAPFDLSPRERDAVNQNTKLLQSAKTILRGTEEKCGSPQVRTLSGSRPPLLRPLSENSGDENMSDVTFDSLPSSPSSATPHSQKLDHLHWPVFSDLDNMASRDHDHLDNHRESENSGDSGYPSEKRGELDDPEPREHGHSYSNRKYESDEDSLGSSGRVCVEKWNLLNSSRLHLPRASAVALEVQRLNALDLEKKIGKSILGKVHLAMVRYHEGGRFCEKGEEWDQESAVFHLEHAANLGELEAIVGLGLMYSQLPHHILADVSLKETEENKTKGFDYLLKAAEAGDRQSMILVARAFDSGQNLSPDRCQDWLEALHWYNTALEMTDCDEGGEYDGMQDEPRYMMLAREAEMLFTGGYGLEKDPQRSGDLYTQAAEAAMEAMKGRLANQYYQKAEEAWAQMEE
T8 sequence (P49840 whole entry): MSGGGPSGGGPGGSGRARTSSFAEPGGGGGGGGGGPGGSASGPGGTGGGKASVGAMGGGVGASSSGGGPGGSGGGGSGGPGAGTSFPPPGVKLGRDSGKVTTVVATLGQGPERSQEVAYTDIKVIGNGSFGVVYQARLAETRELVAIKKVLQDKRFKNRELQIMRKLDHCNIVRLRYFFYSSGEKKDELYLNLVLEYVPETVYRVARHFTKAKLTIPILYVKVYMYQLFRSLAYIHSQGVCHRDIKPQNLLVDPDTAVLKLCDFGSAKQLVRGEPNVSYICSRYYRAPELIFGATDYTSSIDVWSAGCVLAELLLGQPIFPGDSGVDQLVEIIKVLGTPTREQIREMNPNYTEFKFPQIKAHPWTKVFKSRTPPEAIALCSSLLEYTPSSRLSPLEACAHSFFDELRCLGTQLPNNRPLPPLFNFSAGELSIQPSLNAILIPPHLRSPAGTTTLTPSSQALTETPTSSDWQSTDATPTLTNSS
T3 sequence (P54756 25-1037): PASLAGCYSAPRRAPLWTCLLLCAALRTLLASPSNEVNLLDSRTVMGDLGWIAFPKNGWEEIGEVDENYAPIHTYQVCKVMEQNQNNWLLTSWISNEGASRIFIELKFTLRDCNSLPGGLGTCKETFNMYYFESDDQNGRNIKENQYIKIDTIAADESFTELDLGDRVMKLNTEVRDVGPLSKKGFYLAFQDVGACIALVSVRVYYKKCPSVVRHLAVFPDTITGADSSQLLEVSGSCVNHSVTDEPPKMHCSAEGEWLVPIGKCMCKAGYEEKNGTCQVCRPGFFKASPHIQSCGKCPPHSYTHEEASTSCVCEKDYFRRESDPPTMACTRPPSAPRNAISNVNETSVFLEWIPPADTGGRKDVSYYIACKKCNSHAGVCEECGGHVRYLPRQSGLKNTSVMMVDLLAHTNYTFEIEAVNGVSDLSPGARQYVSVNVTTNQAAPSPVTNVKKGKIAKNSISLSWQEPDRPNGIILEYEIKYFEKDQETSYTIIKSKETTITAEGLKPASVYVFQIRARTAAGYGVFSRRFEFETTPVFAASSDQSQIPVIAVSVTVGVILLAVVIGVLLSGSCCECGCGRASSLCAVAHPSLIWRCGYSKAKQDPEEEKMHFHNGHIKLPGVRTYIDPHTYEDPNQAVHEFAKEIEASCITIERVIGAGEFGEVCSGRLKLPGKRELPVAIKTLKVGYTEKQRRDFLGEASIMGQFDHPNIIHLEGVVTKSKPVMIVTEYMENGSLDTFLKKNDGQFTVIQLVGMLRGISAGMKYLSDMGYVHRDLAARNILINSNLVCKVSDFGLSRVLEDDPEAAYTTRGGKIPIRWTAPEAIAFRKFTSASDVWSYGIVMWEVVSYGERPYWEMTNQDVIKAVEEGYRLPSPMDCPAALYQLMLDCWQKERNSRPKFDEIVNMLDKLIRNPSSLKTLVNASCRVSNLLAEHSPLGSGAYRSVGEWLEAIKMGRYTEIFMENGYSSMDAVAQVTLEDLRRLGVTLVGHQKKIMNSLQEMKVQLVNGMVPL

Compound: NS(=O)(=O)c1ccc(Nc2ncc3cc4n(c3n2)C2(CCCCC2)C(=O)NN4)cc1 [INX-315]
- inhibition at 0.1 µM (CHEK1 (CHK1)): 2%
- inhibition at 0.1 µM (PRKCI (PKC iota)): -5%
- inhibition at 0.1 µM (EPHA5): 1%
- inhibition at 0.1 µM (ACVR1B (ALK4)): -2%
- inhibition at 0.1 µM (GRK6): 30%
- inhibition at 0.1 µM (CSF1R (FMS)): 95%
- inhibition at 0.1 µM (RPS6KB1 (p70S6K)): 1%
- inhibition at 0.1 µM (GSK3A (GSK3 alpha)): 11%
- inhibition at 0.1 µM (CAMK4 (CaMKIV)): 0%
- inhibition at 0.1 µM (MAPK3 (ERK1)): 2%
- inhibition at 0.1 µM (PEAK1): 10%
- inhibition at 0.1 µM (CDKL5): -1%
- inhibition at 0.1 µM (MARK2): 9%
- inhibition at 0.1 µM (KIT): 9%
- inhibition at 0.1 µM (MET M1250T): 3%
- inhibition at 0.1 µM (RET): 58%
- inhibition at 0.1 µM (AMPK A1/B1/G1): 32%
- inhibition at 0.1 µM (FLT1 (VEGFR1)): 11%
- inhibition at 0.1 µM (SNF1LK2): 18%
- inhibition at 0.1 µM (MAP3K9 (MLK1)): 22%
- inhibition at 0.1 µM (EGFR (ErbB1) G719S): 4%
- inhibition at 0.1 µM (JAK2 JH1 JH2 V617F): 39%
- inhibition at 0.1 µM (PDGFRA D842V): 13%
- inhibition at 0.1 µM (HIPK1 (Myak)): 6%
- inhibition at 0.1 µM (PRKX): 3%
- inhibition at 0.1 µM (MAP3K19 (YSK4)): 13%
- inhibition at 0.1 µM (RPS6KA5 (MSK1)): 8%
- inhibition at 0.1 µM (EEF2K): 4%
- inhibition at 0.1 µM (IKBKE (IKK epsilon)): 10%
- inhibition at 0.1 µM (CSK): 1%
- inhibition at 0.1 µM (EGFR (ErbB1) T790M L858R): 0%
- inhibition at 0.1 µM (SGK (SGK1)): 6%
- inhibition at 0.1 µM (ALK): 16%
- inhibition at 0.1 µM (KSR2): 7%
- inhibition at 0.1 µM (BMX): 22%
- inhibition at 0.1 µM (EPHB1): 19%
